From patent US7842660B2, “4-hepten-2-yl salicylate and its use as fragrance ingredient” (Givaudan SA, priority 2004, dated 2010)

System: panel of trained evaluators
Assay: Determination of the GC-odor threshold values (gas chromatograph with sniff port)
Settings: for odor threshold value, geometric mean: GC sniff port, absolute amount of compound delivered at the sniff port, identical conditions
Excerpt: As used herein “odor threshold value” means the lowest concentration of a vapor in the air which can be detected by smell. Generally speaking, it can be said that a compound with a low odor threshold value is more powerful than a compound with a high odor threshold value and thus allows the use of a very low concentration in a fragrance composition to achieve an olfactory effect. According to standard procedures known to the person skilled in the art, threshold values for volatile perfumery compounds are determined on a gas chromatograph equipped with a sniff port by a panel of trained evaluators. The lowest concentration smelled by each panelist is recorded as the individual threshold value expressed in ng (absolute amount of compound delivered at the sniff port). By way of comparison, there were also tested (Z)-2-methyl-3-hexen-1-yl salicylate and (Z)-3-hexen-1-yl 2-hydroxy-3-methylbenzoate. The objective was to show the considerable effect exerted by the position of a substituent. Under identical conditions the odor threshold value for the individual compounds was measured.

SMILES | odor threshold value, geometric mean [ng] | odor threshold of the (Z)-isomer relative to the (E)-isomer (times lower) ((Z)- vs (E)-4-hepten-2-yl salicylate)
CC/C=C\CCOC(=O)c1cccc(C)c1O [(Z)-3-Hexen-1-yl 2-hydroxy-3-methylbenzoate] | 201 | –
CC/C=C\C(C)COC(=O)c1ccccc1O (centres unmarked) [(Z)-2-Methyl-3-hexen-1-yl salicylate] | 10 | –
CC/C=C\CC(C)OC(=O)c1ccccc1O (centres unmarked) [(Z)-4-Hepten-2-yl salicylate] | 0.77 | about 10 times
CC/C=C\CCOC(=O)c1ccccc1O [(Z)-3-Hexen-1-yl salicylate] | 0.92 | –
